Reference: publication PMC12040169 (PLOS Biology, 2025)

Assay: in vitro
Settings: human, hela cells, % viability

| SMILES | viability at 28.5 h, 10 µM [%] |
| --- | --- |
| CC(C)(CNC(=O)CN1CCOCC1)NC(=O)OC(C)(C)C [CBK089350] | 88.7 |
| CCCCOc1ccc(NC(=O)Nc2cc3cccnc3c(Br)n2)cc1 [CBK063291] | 78.1 |
| COc1ncc(-c2cncc(N3CCN(CCO)CC3)n2)c(OC)n1 [CBK065146] | 84.8 |
| COc1ccc2oc(C(=O)N(C)CC(C)OC)c(C)c2c1 (stereo not drawn) [CBK282037] | 94.4 |
| Cc1[nH]c(=O)[nH]c(=O)c1N(CCO)CCO [CBK262052] | 94.8 |
| CS(=O)(=O)N1CC=CC1C(=O)NCCCc1ccc(F)cc1 (stereo not drawn) [CBK282631] | 85.5 |
| CCCCc1ccc(-c2nccn2CC2CN(C(C)=O)CCO2)s1 (stereo not drawn) [CBK307600] | 110 |
| Cc1nc2ccc(C(=O)NC(C)Cc3cccs3)cc2[nH]1 (stereo not drawn) [CBK282487] | 86.8 |
| Cc1nn(C)c(C)c1CCC(=O)NCC(C)Oc1ccccc1F (stereo not drawn) [CBK305194] | 94.3 |
| CC(C(=O)Nc1cccc(N2CCNCC2)c1)c1ccccc1 (stereo not drawn) [CBK004770T] | 95.6 |
| COc1ccccc1-c1nnc(SCC(=O)Nc2nccs2)o1 [CBK287390] | 107 |
| O=C(O)c1oc2ccccc2c1CSc1ccccn1 [CBK286981] | 89.5 |
| Oc1ccc2ccccc2c1/C=N/Nc1nnc(-c2ccccc2)c(-c2ccccc2)n1 [CBK262005] | 91.9 |
| Cc1nn(C(C)C)c(C)c1CN(Cc1ccccn1)Cc1ccco1 [CBK283221] | 114 |
| CSc1ccc2cc(CSc3nnc(-c4cccs4)n3CC(=O)O)c(Cl)nc2c1 [CBK295298] | 91.3 |
| Nc1ncc(-c2ccco2)nc1NCC1CCOCC1 [CBK063825] | 100 |
| O=C(OCn1nnc2ccccc2c1=O)c1cccc([N+](=O)[O-])c1 [CBK264887] | 104 |
| CC(=O)c1ccc(S(=O)(=O)NCC2CC2)cc1 [CBK044440] | 100 |
| Cc1[nH]ncc1C(=O)N1CCn2cc(C(F)(F)F)nc2C1 [CBK282307] | 87.7 |
| CC(=O)N1CCc2c(sc3nc(N)c(C(=O)NCCc4ccc(F)cc4)c(C(F)(F)F)c23)C1 [CBK269176] | 94.4 |
| COCCN1C(=O)CC2(C1=O)C(=O)N(CC(=O)c1ccccc1)c1ccccc12 (stereo not drawn) [CBK075875] | 99 |
| CC1Oc2ccccc2OC1C(=O)Nc1ccc([N+](=O)[O-])cc1Cl (stereo not drawn) [CBK269412] | 85.8 |
| COC(=O)c1cn([C@H]2CO[C@H]3[C@@H]2OC[C@@H]3NC(=O)Nc2cccc(C(F)(F)F)c2)nn1 [CBK289501] | 78.9 |

| SMILES | viability at 28.5 h, 10 µM [%] |
| --- | --- |
| CCn1ccc(C(=O)NC(c2cncc(OC)c2)[C@H]2C[C@@H](O)C2)cc1=O (stereo partly drawn) [CBK307696] | 110 |
| O=C(O)C1CCN(Cc2cnnn2-c2ccccc2F)CC1 [CBK287197] | 82.1 |
| COc1ccc(CN2CCN(Cc3cccnc3)CC2)cc1OC [CBK074409G] | 94.1 |
| O=C(CN1C(=O)[C@H]2CCCN2c2ncccc21)NCCc1c[nH]c2ccccc12 [CBK286206] | 107 |
| O=C1CC2(CCN(S(=O)(=O)c3ccc(F)cc3)CC2)CN1 [CBK283353] | 93.9 |
| O=C(NC(Cc1cccs1)c1nccs1)c1cccnc1 (stereo not drawn) [CBK285133] | 98.3 |
| O=C(O)CCCNC(=O)c1ccncc1 [CBK261146] | 104 |
| OCc1nnn(-c2ccncc2)c1CO [CBK288549] | 96.8 |
| O=C(Cn1cc(-c2ccc(CN3CCCCC3)cc2)nn1)NCc1ccc(Cl)cc1Cl [CBK167689] | 83.2 |
| Cc1ccc(-c2nccnc2OCCC(C)C)c(C)c1 [CBK106988] | 102 |
| CCCn1c(CN2CCN(CCO)CC2)nc2ccccc21 [CBK269363] | 110 |
| Nc1ncc(-c2cccnc2)nc1NC1CCC(O)CC1 (stereo not drawn) [CBK063840] | 92.7 |
| COc1cc(C)nc(N2CCN(C(=O)CCc3ccsc3)CC2)n1 [CBK304572] | 87.6 |
| CCc1ccc2c(c1)C(CCNC(=O)c1ncccc1F)C(=O)N2 (stereo not drawn) [CBK304727] | 106 |
| CSCCC(C(=O)O)N1C(=O)c2ccc(C(=O)O)cc2C1=O (stereo not drawn) [CBK265135] | 110 |
| Cc1nn(CC(=O)NC(C)C)c(=O)c2cc3ccsc3n12 [CBK284027] | 83.9 |
| O=C(NCCNc1ccc([N+](=O)[O-])cc1Cl)c1ccccc1Cl [CBK263541] | 112 |
| C=Cn1ncc(CN(CCN(C)C)Cc2ccc(C)o2)c1C [CBK283236] | 110 |
| C=CCn1c(CCCNC=O)nc2ccccc21 [CBK269375] | 94.2 |
| COc1ccc(CN2CC(C(=O)O)C2)cc1Cn1cncn1 [CBK307284] | 110 |
| Cc1nc(-c2ccco2)nc2sc(C(=O)N(C)CC3COc4ccccc4O3)c(C)c12 (stereo not drawn) [CBK295347] | 105 |
| Nc1ncc(-c2cccc(O)c2)nc1N1CCC(C(=O)O)CC1 [CBK063405] | 85.3 |
| CCCCN(C)CCNC(=O)c1ccc2c(c1)NC(=O)C(N1CCCCC1)S2 (stereo not drawn) [CBK071799] | 85.1 |

| SMILES | viability at 28.5 h, 10 µM [%] |
| --- | --- |
| CN1CCCN(c2nc(-c3cccc(C(F)(F)F)c3)cn3ccnc23)CC1 [CBK066519] | 92 |
| CCOc1ccc(NC(=O)COc2ccccc2/C=C/C(=O)O)cc1 [CBK286935] | 96.6 |
| c1cc(CNCCN2CCOCC2)cs1 [CBK001894] | 105 |
| O=C(CCc1ccccc1)N1CCCC1c1n[nH]cc1-c1ccncc1 (stereo not drawn) [CBK283436] | 91.4 |
| CCn1c2ccccc2c2cc(/C=N/N3CCN(c4ccccc4OC)CC3)ccc21 [CBK101168] | 92.6 |
| Cc1ccc(S(=O)(=O)NC(=O)c2cc(C)n(-c3ccc(N(C)C)cc3)c2C)cc1 [CBK296085] | 92.9 |
| CCc1nnc(NS(=O)(=O)c2ccc(NC(=O)c3ccccc3[N+](=O)[O-])cc2)s1 [CBK045494] | 94.2 |
| Cc1nnc(CSc2nnc(-c3ccc(Cl)cc3)[nH]2)o1 [CBK270241] | 102 |
| C=C(C)Cn1c(SC(C)C)nnc1-c1ccccc1Cl [CBK200079] | 99.9 |
| CNC(=S)NCCc1c[nH]c2ccccc12 [CBK264853] | 108 |
| COc1cc(C=O)ccc1Oc1nnnn1-c1ccc(C(=O)O)cc1 [CBK267071] | 95.5 |
| CS(=O)(=O)CCNC(=O)c1cnc(-c2ccc(F)cc2)c(-c2cccnc2)c1 [CBK038066] | 88 |
| COc1cc(C(=O)N2CCN(Cc3c[nH]c4ccccc34)CC2)cc(OC)c1OC [CBK301212G] | 77.7 |
| O=C(CCc1ccncc1)N1CCC(c2cc3ncccc3[nH]2)CC1 [CBK284460] | 84.3 |
| O=C(Cc1nnn[nH]1)Nc1cccc(-c2nn[nH]n2)c1 [CBK160122] | 116 |
| CCOc1ccccc1N(CC(=O)Nc1ccc(C)cc1C)S(C)(=O)=O [CBK263799] | 96 |
| CC(=O)c1c(C)oc2c1cc(NS(=O)(=O)c1ccc(C(=O)O)cc1)c1ccccc12 [CBK299780] | 92 |
| O=C(O)c1cc2ncc(CCO)cn2n1 [CBK267635] | 99.6 |
| Fc1ccc(CSc2nc3ccccc3nc2C(F)(F)F)cc1 [CBK107199] | 98.6 |
| CC(C)(C)C(=O)N1CCC(n2nc(-c3cccs3)oc2=O)CC1 [CBK282423] | 88 |
| Nc1nc(OCCOc2ccccc2)cnc1-c1ccc2c(c1)OCO2 [CBK145097] | 83.4 |
| Cc1ccc(-n2c(SCC(=O)Nc3sc4c(c3C#N)CCCC4)nnc2-c2ccccc2O)c(C)c1 [CBK268692] | 77.9 |
| N#Cc1ccnc(SCC(=O)Nc2ccc(CN3CCOCC3)cc2)c1 [CBK306010] | 103 |

| SMILES | viability at 28.5 h, 10 µM [%] |
| --- | --- |
| Cn1nc(NC(=O)CC(C)(C)CC(=O)O)c2c(F)cccc21 [CBK057122] | 86.3 |
| C#CCN1CC[C@]2(c3ccc(OC)c(OC)c3)CC[C@@H](NC(=O)Nc3ccc(F)c(F)c3)C[C@H]12 [CBK056657] | 104 |
| CCc1c(C)nc2c(N3CCOC3=O)cccc2c1SCCC(=O)O [CBK159595T] | 91.7 |
| Cc1ccccc1-n1c(=O)cc(N2CCN(c3ccc(F)cc3)CC2)[nH]c1=O [CBK287508] | 95.1 |
| O=C(Nc1nnc(C2=COCCO2)o1)c1cccc(Cl)c1 [CBK287417] | 83.5 |
| C[C@H](NC(=O)C1CCN(C(=O)OC(C)(C)C)CC1)C(=O)O [CBK286730] | 78.9 |
| CS(=O)(=O)c1ccccc1S(=O)(=O)N1CCN(c2nc3ccccc3s2)CC1 [CBK269468] | 97.7 |
| CCOC(=O)c1cnn(-c2ccccc2)c1NS(=O)(=O)c1cccc(Cl)c1C [CBK024055] | 84.6 |
| Clc1ccc(SCCCSc2ncccn2)cc1 [CBK266400] | 96.8 |
| Nc1nc(-c2ccc3c(c2)CCC(=O)N3)cs1 [CBK086133] | 80.8 |
| O=C(CN1C(=O)N2CCN=C2c2ccccc21)N1CCCCC1 [CBK283865] | 91.1 |
| O=C(NC1(CN2CCCCC2)CCCCC1)NS(=O)(=O)c1ccc(Cl)cc1 [CBK022858] | 94.4 |
| Cc1c(C(=O)N2CCCCC2C(N)=O)nnn1Cc1ccc(F)cc1F (stereo not drawn) [CBK304425] | 93.7 |
| CCNC(=S)NC(=Nc1nc(C)cc(C)n1)NCc1cccnc1 [CBK267212] | 97.2 |
| CCOc1cc(S(=O)(=O)NCCCN2CCOCC2)c(C)cc1C [CBK268764] | 99 |
| Cc1ccc(Cl)cc1NC(=O)c1cc(NC(=O)C2C3C=CC(C3)C2C(=O)O)ccc1N1CCCCC1 (stereo not drawn) [CBK268194] | 85.9 |
| COc1ccc2[nH]cc(CCNC(=O)/C=C/c3ccc(C(C)C)cc3)c2c1 [CBK149639] | 91.7 |
| CC(C)c1ccc(CN2CCCN(c3cc(OCCc4c[nH]c5ccccc45)ncn3)CC2)cc1 [CBK083280T] | 106 |
| CCN(CC)c1ccc(NC(=O)c2cc(-c3cccnc3)cnc2NCCN2CCOCC2)cc1 [CBK126566] | 105 |
| O=C(c1ccccc1F)N1C[C@H](c2ccsc2)[C@H]2CN(Cc3ccccc3)CC[C@H]21 [CBK285655] | 96.5 |
| O=C(Cc1c[nH]c2ccccc12)N1Cc2ccccc2C1 [CBK200321] | 103 |
